Measured values reported in publication PMC10770758, “Protocatechuate hydroxylase is a novel group A flavoprotein monooxygenase with a unique substrate recognition mechanism” (The Journal of Biological Chemistry, 2023).

Assays:
Type in all cases: binding
XaPobA = molecular target: T1, XaPobA (Xylophilus ampelinus, UniProt A0AAJ6N6I2); test: X-ray crystal structure; HPLC of heat-released flavin; conditions: oxidized form, prosthetic group
T1 construct: gene praI; codon-optimised gene in modified pET28a, 6xHis tag, E. coli BL21 Star (DE3), HisTrap; homodimer in crystal
T1 sequence (A0AAJ6N6I2 1-391): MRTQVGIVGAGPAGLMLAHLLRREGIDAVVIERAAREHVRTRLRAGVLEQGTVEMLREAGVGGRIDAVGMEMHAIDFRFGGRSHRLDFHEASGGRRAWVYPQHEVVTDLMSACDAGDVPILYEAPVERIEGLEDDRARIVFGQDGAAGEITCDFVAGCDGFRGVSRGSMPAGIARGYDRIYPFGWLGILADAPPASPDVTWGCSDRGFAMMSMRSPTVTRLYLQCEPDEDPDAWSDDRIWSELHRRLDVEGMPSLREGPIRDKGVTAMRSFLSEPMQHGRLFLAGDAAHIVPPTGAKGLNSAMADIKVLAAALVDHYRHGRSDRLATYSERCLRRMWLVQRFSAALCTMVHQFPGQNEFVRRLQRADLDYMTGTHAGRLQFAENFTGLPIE

OtPobA = molecular target: T2, OtPobA (Ottowia thiooxydans, UniProt A0ABV2Q8W8); test: HPLC of heat-released flavin; absorption spectrum; conditions: prosthetic group
T2 construct: gene ABIE13_002600; codon-optimised gene in modified pET28a, His-tagged, E. coli BL21 Star (DE3), HisTrap
T2 sequence (A0ABV2Q8W8 1-392): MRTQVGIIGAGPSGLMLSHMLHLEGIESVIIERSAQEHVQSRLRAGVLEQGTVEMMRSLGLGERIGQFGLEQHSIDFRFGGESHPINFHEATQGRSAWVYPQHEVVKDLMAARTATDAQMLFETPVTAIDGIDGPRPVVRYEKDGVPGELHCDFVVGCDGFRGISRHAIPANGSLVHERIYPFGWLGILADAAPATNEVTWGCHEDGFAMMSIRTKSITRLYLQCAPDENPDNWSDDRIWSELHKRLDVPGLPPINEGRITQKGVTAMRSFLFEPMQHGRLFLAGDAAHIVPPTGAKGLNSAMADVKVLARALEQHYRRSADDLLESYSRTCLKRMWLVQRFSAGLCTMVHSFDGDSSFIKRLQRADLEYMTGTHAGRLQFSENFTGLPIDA

PkPobA = molecular target: T3, PkPobA (Pigmentiphaga kullae, UniProt A0A4Q7NA79); test: HPLC of heat-released flavin; absorption spectrum; conditions: prosthetic group
T3 construct: gene EV675_5624; codon-optimised gene in modified pET28a, His-tagged, E. coli BL21 Star (DE3), HisTrap
T3 sequence (A0A4Q7NA79 1-391): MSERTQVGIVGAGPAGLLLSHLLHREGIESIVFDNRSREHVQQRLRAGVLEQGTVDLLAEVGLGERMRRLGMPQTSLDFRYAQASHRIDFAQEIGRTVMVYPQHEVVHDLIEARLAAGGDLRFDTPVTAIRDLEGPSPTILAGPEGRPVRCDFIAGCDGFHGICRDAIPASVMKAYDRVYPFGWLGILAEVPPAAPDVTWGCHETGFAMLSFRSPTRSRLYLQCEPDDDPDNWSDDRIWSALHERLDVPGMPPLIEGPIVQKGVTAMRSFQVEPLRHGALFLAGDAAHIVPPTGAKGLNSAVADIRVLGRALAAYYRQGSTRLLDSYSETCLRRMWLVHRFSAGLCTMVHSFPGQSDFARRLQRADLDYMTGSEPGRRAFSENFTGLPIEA

With `Cc1cc2nc3c(=O)[nH]c(=O)nc-3n(C[C@H](O)[C@H](O)[C@H](O)COP(=O)(O)OP(=O)(O)OC[C@H]3O[C@@H](n4cnc5c(N)ncnc54)[C@H](O)[C@@H]3O)c2cc1C` [FAD, flavin adenine dinucleotide] the “X-ray crystal structure; HPLC of heat-released flavin” value (XaPobA) was “homodimer, with each unit binding an oxidized form of FAD in its active site”, the “HPLC of heat-released flavin; absorption spectrum” value (OtPobA) was “indicating that XaPobA, OtPobA, and PkPobA use FAD as a prosthetic group” and the “HPLC of heat-released flavin; absorption spectrum” value (PkPobA) was “indicating that XaPobA, OtPobA, and PkPobA use FAD as a prosthetic group”.
